Results taken from PubChem BioAssay AID1259407 (Chemical Carcinogenesis Research Information System (CCRIS), 2018).
Calls of active or inactive are those of the source. No rule for the calls is given here.

System: CCRIS mutagenicity, Ames/micronucleus/aberration tests
Experiment: CCRIS mutagenicity studies
[1] = Test System: AMES SALMONELLA TYPHIMURIUM, Strain/Indicator: TA98, Metabolic Activation: NONE, Method: STANDARD PLATE
[2] = Test System: AMES SALMONELLA TYPHIMURIUM, Strain/Indicator: TA100, Metabolic Activation: NONE, Method: STANDARD PLATE

Measured: mutagenic call

CO[C@@H]1[C@H](O)C[C@@H](O[C@@H]2C[C@H](Oc3cc4cc5c(c(O)c4c(O)c3C)C(=O)[C@@H](O[C@H]3C[C@@H](O[C@H]4C[C@@H](O[C@H]6C[C@](C)(O)[C@@H](OC(C)=O)[C@H](C)O6)[C@H](O)[C@@H](C)O4)[C@H](O)[C@@H](C)O3)[C@H]([C@H](OC)C(=O)[C@@H](O)[C@@H](C)O)C5)O[C@H](C)[C@@H]2OC(C)=O)O[C@@H]1C
active: Test System: CHINESE HAMSTER OVARY, Strain/Indicator: CHO (HGPRT)/6-THIOGUANINE, Metabolic Activation: NONE, Method: PREINCUBATION active; positive
inactive: [1] inactive; negative | [2] inactive; negative | Test System: E. COLI, Strain/Indicator: WP2 (HCR), Metabolic Activation: NONE, Method: STANDARD PLATE inactive; negative

O=[N+]([O-])c1cccc2c1-c1cccc3cccc-2c13
active: [1] active; positive

c1ccc2c(c1)-c1cccc3cccc-2c13
inactive: Test System: AMES SALMONELLA TYPHIMURIUM, Strain/Indicator: TA97, Metabolic Activation: NONE, Method: STANDARD PLATE inactive; negative | [1] inactive; negative | Test System: AMES SALMONELLA TYPHIMURIUM, Strain/Indicator: TA98, Metabolic Activation: RAT, LIVER, S-9, AROCLOR 1254 (4%), Method: STANDARD PLATE inactive; negative | [2] inactive; negative | Test System: AMES SALMONELLA TYPHIMURIUM, Strain/Indicator: TA102, Metabolic Activation: RAT, LIVER, S-9, AROCLOR 1254, Method: TAPED-PLATE inactive; negative | Test System: AMES SALMONELLA TYPHIMURIUM, Strain/Indicator: TA1535, Metabolic Activation: RAT, LIVER, S-9, AROCLOR 1254, Method: TAPED-PLATE inactive; negative | Test System: UDS RAT HEPATOCYTES, Strain/Indicator: THY INCORP, Metabolic Activation: NONE, Method: IN VIVO-IN VITRO inactive; negative
active: Test System: AMES SALMONELLA TYPHIMURIUM, Strain/Indicator: TA97, Metabolic Activation: RAT, LIVER, S-9, AROCLOR 1254, Method: TAPED-PLATE active; positive | Test System: AMES SALMONELLA TYPHIMURIUM, Strain/Indicator: TA97, Metabolic Activation: RAT, LIVER, S-9, PCB, Method: STANDARD PLATE active; positive | Test System: AMES SALMONELLA TYPHIMURIUM, Strain/Indicator: TA98, Metabolic Activation: RAT, LIVER, S-9, AROCLOR 1254, Method: FLUCTUATION active; positive | Test System: AMES SALMONELLA TYPHIMURIUM, Strain/Indicator: TA98, Metabolic Activation: RAT, LIVER, S-9, AROCLOR 1254, Method: TAPED-PLATE active; positive | Test System: AMES SALMONELLA TYPHIMURIUM, Strain/Indicator: TA98, Metabolic Activation: RAT, LIVER, S-9, PCB, Method: STANDARD PLATE active; positive | Test System: AMES SALMONELLA TYPHIMURIUM, Strain/Indicator: TA100, Metabolic Activation: RAT, LIVER, S-9, AROCLOR 1254, Method: FLUCTUATION active; positive | Test System: AMES SALMONELLA TYPHIMURIUM, Strain/Indicator: TA100, Metabolic Activation: RAT, LIVER, S-9, AROCLOR 1254, Method: TAPED-PLATE active; positive | Test System: AMES SALMONELLA TYPHIMURIUM, Strain/Indicator: TA100, Metabolic Activation: RAT, LIVER, S-9, PCB, Method: STANDARD PLATE active; positive | Test System: AMES SALMONELLA TYPHIMURIUM, Strain/Indicator: TA1537, Metabolic Activation: RAT, LIVER, S-9, AROCLOR 1254, Method: TAPED-PLATE active; positive

Cc1cc2c3ccccc3cc3ccc4cccc1c4c32
active: Test System: AMES SALMONELLA TYPHIMURIUM, Strain/Indicator: TA100, Metabolic Activation: RAT, INTACT HEPATOCYTES, AROCLOR 1254, Method: PREINCUBATION active; positive | Test System: AMES SALMONELLA TYPHIMURIUM, Strain/Indicator: TA100, Metabolic Activation: RAT, NADPH-FORTIFIED HOMOGENIZED HEPATOCYTES, AROCLOR 1254, Method: PREINCUBATION active; positive

C
inactive: End Point: In vitro chromosomal aberrations, Test System: Chinese hamster V79 lung fibroblast cells, Metabolic Activation: Rat, Liver, S9, Aroclor 1254 inactive; negative. material tested was baytubes, multi-walled carbon-nanotubes. | Test System: Ames Salmonella typhimurium, Strain/Indicator: TA98, Metabolic Activation: None, Method: Preincubation inactive; negative. material tested was baytubes, multi-walled carbon-nanotubes. | Test System: Ames Salmonella typhimurium, Strain/Indicator: TA98, Metabolic Activation: Rat, Liver, S9, Aroclor 1254, Method: Preincubation inactive; negative. material tested was baytubes, multi-walled carbon-nanotubes. | Test System: Ames Salmonella typhimurium, Strain/Indicator: TA100, Metabolic Activation: None, Method: Preincubation inactive; negative. material tested was baytubes, multi-walled carbon-nanotubes. | Test System: Ames Salmonella typhimurium, Strain/Indicator: TA100, Metabolic Activation: Rat, Liver, S9, Aroclor 1254, Method: Preincubation inactive; negative. material tested was baytubes, multi-walled carbon-nanotubes. | Test System: Ames Salmonella typhimurium, Strain/Indicator: TA102, Metabolic Activation: None, Method: Preincubation inactive; negative. material tested was baytubes, multi-walled carbon-nanotubes. | Test System: Ames Salmonella typhimurium, Strain/Indicator: TA102, Metabolic Activation: Rat, Liver, S9, Aroclor 1254, Method: Preincubation inactive; negative. material tested was baytubes, multi-walled carbon-nanotubes. | Test System: Ames Salmonella typhimurium, Strain/Indicator: TA1535, Metabolic Activation: None, Method: Preincubation inactive; negative. material tested was baytubes, multi-walled carbon-nanotubes. | Test System: Ames Salmonella typhimurium, Strain/Indicator: TA1535, Metabolic Activation: Rat, Liver, S9, Aroclor 1254, Method: Preincubation inactive; negative. material tested was baytubes, multi-walled carbon-nanotubes. | Test System: Ames Salmonella typhimurium, Strain/Indicator: TA1537, Metabolic Activation: None, Method: Preincubation inactive; negative. material tested was baytubes, multi-walled carbon-nanotubes. | Test System: Ames Salmonella typhimurium, Strain/Indicator: TA1537, Metabolic Activation: Rat, Liver, S9, Aroclor 1254, Method: Preincubation inactive; negative. material tested was baytubes, multi-walled carbon-nanotubes.

ClC(Cl)(Cl)C(Cl)(Cl)Cl
inactive: End Point: IN VITRO CHROMOSOMAL ABERRATIONS, Test System: CHINESE HAMSTER OVARY CELLS, Metabolic Activation: RAT, LIVER, S-9, AROCLOR 1254 inactive; negative; precipitation occurred at all doses | Test System: AMES SALMONELLA TYPHIMURIUM, Strain/Indicator: TA98, Metabolic Activation: HAMSTER, LIVER, S-9, AROCLOR 1254, Method: PREINCUBATION inactive; negative | Test System: AMES SALMONELLA TYPHIMURIUM, Strain/Indicator: TA98, Metabolic Activation: NONE, Method: PREINCUBATION inactive; negative | Test System: AMES SALMONELLA TYPHIMURIUM, Strain/Indicator: TA98, Metabolic Activation: RAT, LIVER, S-9, AROCLOR 1254, Method: PREINCUBATION inactive; negative | Test System: AMES SALMONELLA TYPHIMURIUM, Strain/Indicator: TA100, Metabolic Activation: HAMSTER, LIVER, S-9, AROCLOR 1254, Method: PREINCUBATION inactive; negative | Test System: AMES SALMONELLA TYPHIMURIUM, Strain/Indicator: TA100, Metabolic Activation: NONE, Method: PREINCUBATION inactive; negative | Test System: AMES SALMONELLA TYPHIMURIUM, Strain/Indicator: TA100, Metabolic Activation: RAT, LIVER, S-9, AROCLOR 1254, Method: PREINCUBATION inactive; negative | Test System: AMES SALMONELLA TYPHIMURIUM, Strain/Indicator: TA1535, Metabolic Activation: HAMSTER, LIVER, S-9, AROCLOR 1254, Method: PREINCUBATION inactive; negative | Test System: AMES SALMONELLA TYPHIMURIUM, Strain/Indicator: TA1535, Metabolic Activation: NONE, Method: PREINCUBATION inactive; negative | Test System: AMES SALMONELLA TYPHIMURIUM, Strain/Indicator: TA1535, Metabolic Activation: RAT, LIVER, S-9, AROCLOR 1254, Method: PREINCUBATION inactive; negative | Test System: AMES SALMONELLA TYPHIMURIUM, Strain/Indicator: TA1537, Metabolic Activation: HAMSTER, LIVER, S-9, AROCLOR 1254, Method: PREINCUBATION inactive; negative | Test System: AMES SALMONELLA TYPHIMURIUM, Strain/Indicator: TA1537, Metabolic Activation: NONE, Method: PREINCUBATION inactive; negative | Test System: AMES SALMONELLA TYPHIMURIUM, Strain/Indicator: TA1537, Metabolic Activation: RAT, LIVER, S-9, AROCLOR 1254, Method: PREINCUBATION inactive; negative
